Source: patent publication US5340833A, “Urokinase inhibitors” (Eisai Co., Ltd., priority 1992, dated 1994)
Structures can show the parent of a compound that is named as a salt.

target: T1, human high molecular weight urokinase (Homo sapiens, UniProt P00749); test: Urokinase Direct Assay; format: biochemical; conditions: read-out: uPA Direct: percentage of residual urokinase activity relative to inhibitor-free controls; heading: uPA Direct: percentage of residual urokinase activity relative to inhibitor-free controls; inhibitor concentration of 1 mM
T1 construct: human high molecular weight urokinase; purchased American Diagnostica, Greenwich, Conn
Protocol: (i) A direct chromogenic assay in which urokinase cleaves a synthetic tripeptide p-nitroanilide (pNA) urokinase substrate.
Incubations were carried out at 37° C. for approximately 2 hours or until adequate yellow color developed. Color was quantitated by measuring absorbance at 405 nm (A405) using a Titertek Multiskan MCC/340 MK II microtiter plate spectrophotometer.

SMILES	residual urokinase activity at 1000 µM [%]
CC=Cc1ccc2sc(C(=N)N)cc2c1 [Compound 116, 5-(E/Z-Prop-1-enyl)benzo[b]thiophene-2-carboxamidine hydrochloride]	1.6
CCC=Cc1ccc2sc(C(=N)N)cc2c1 [Compound 117, 5-(E/Z-But-1-enyl)benzo[b]thiophene-2-carboxamidine hydrochloride]	1.1
CCC(C)=Cc1ccc2sc(C(=N)N)cc2c1 [Compound 118, 5-(E/Z-2-Methylbut-1-enyl)benzo[b]thiophene-2-carboxamidine hydrochloride]	1.2
CC(C)C=Cc1ccc2sc(C(=N)N)cc2c1 [Compound 119, 5-(E/Z-3-Methylbut-1-enyl)benzo[b]thiophene-2-carboxamidine hydrochloride]	4.9
C#Cc1ccc2sc(C(=N)N)cc2c1 [Compound 123, 5-(Ethynyl)benzo[b]thiophene-2-carboxamidine hydrochloride]	2.5
N=C(N)c1cc2cc(-c3cccnc3)ccc2s1 [Compound 125, 5-(Pyrid-3-yl)benzo[b]thiophene-2-carboxamidine hydrochloride]	3.6
N=C(N)c1cc2cc(-c3cccs3)ccc2s1 [Compound 127, 5-(Thien-2-yl)benzo[b]thiophene-2-carboxamidine hydrochloride]	1.1
N=C(N)c1cc2cc(C(F)(F)F)ccc2s1 [Compound 129, 5-(Trifluoromethyl)benzo[b]thiophene-2-carboxamidine hydrochloride]	8.2
N=C(N)c1cc2cc(C=O)ccc2s1 [Compound 130, 5-Formylbenzo[b]thiophene-2-carboxamidine hydrochloride]	6.8
N=C(N)c1cc2cc(CO)ccc2s1 [Compound 131, 5-(Hydroxymethyl)benzo[b]thiophene-2-carboxamidine hydrochloride]	6.3
Cc1ccc2sc(C(=N)N)cc2c1Br [Compound 202, 4-Bromo-5-methylbenzo[b]thiophene-2-carboxamidine hydrochloride]	3
N=C(N)c1cc2c(Cl)c(I)ccc2s1 [Compound 203, 4-Chloro-5-iodobenzo[b]thiophene-2-carboxamidine hydrochloride]	3.5
N=C(N)c1cc2c(ccc3ccccc32)s1 [Compound 205, Naphtho[2,1-b]thiophene-2-carboxamidine hydrochloride]	0.27
N=C(N)c1cc2ccc(I)cc2s1 [Compound 301, 6-Iodobenzo[b]thiophene-2-carboxamidine hydrochloride]	13.7
N=C(N)c1cc2cccc(I)c2s1 [Compound 302, 7-Iodobenzo[b]thiophene-2-carboxamidine hydrochloride]	10.8
Cc1ccc2cc(C(=N)N)sc2c1 [Compound 303, 6-Methylbenzo[b]thiophene-2-carboxamidine hydrochloride]	12
Cc1c(C(=N)N)sc2ccccc12 [Compound 304, 3-Methylbenzo[b]thiophene-2-carboxamidine hydrochloride]	75

SMILES	residual urokinase activity at 1000 µM [%]
N=C(N)c1sc2ccccc2c1O [Compound 305, 3-Hydroxybenzo[b]thiophene-2-carboxamidine hydrochloride]	> 90
N=C(N)c1sc2ccccc2c1N [Compound 306, 3-Aminobenzo[b]thiophene-2-carboxamidine hydrochloride]	41
N=C(N)c1cc2c(F)cc(Br)cc2s1 [Compound 308, 4-Fluoro-6-bromobenzo[b]thiophene-2-carboxamidine hydrochloride]	14.5
COc1ccc(Br)c2sc(C(=N)N)cc12 [Compound 309, 7-Bromo-4-methoxybenzo[b]thiophene-2-carboxamidine hydrochloride]	18
COc1ccc(F)c2cc(C(=N)N)sc12 [Compound 310, 4-Fluoro-7-methoxybenzo[b]thiophene-2-carboxamidine hydrochloride]	> 90
COc1c(Br)cc(Br)c2sc(C(=N)N)cc12 [Compound 311, 5,7-Dibromo-4-methoxybenzo[b]thiophene-2-carboxamidine hydrochloride]	18
N=C(N)c1cc2cc3ccccc3cc2s1 [Compound 313, Naphtho[2,3-b]thiophene-2-carboxamidine hydrochloride]	11
N=C(N)c1ccc2sccc2c1 [Compound 314, Benzo[b]thiophene-5-carboxamidine hydrochloride]	43
N=C(N)c1ccc2ccsc2c1 [Compound 315, Benzo[b]thiophene-6-carboxamidine hydrochloride]	21
N=C(N)c1csc2ccccc12 [Compound 316, Benzo[b]thiophene-3-carboxamidine hydrochloride]	80
N=C(N)c1cccc2sccc12 [Compound 317, Benzo[b]thiophene-4-carboxamidine hydrochloride]	90
N=C(N)c1cc2cccnc2s1 [Compound 318, Pyrido[2,3-b]thiophene-2-carboxamidine hydrochloride]	55
N=C(N)Nc1cc2ccccc2s1 [Compound 319, 2-Guanidinobenzo[b]thiophene hydrochloride]	> 90
N=C(N)NC(=O)c1cc2ccccc2s1 [Compound 320, N-Amidino benzo[b]thiophene-2-carboxamide hydrochloride]	84
N=C(N)c1cc2sccc2s1 [Compound 322, Thieno[3,2-b]thiophene-2-carboxamidine hydrochloride]	2.7
N=C(N)c1cc2cscc2s1 [Compound 323, Thieno[3,4-b]thiophene-2-carboxamidine hydrochloride]	5.3
